This note sets out measurements from patent US5030635A, “6-7-dimethoxy-1,2-dihydro-2-arylquinazoline-3-oxides” (Ortho Pharmaceutical Corporation, priority 1990, dated 1991).

For assay [1], the system named is myocardial contractile force. As to the kind of experiment: Acute In Vivo Cardiotonic Evaluation (myocardial contractile force). Particulars: Canis lupus familiaris, iv, i.v. infusion, anesthetized dogs, vs pretreatment control values, read-out: % Increase In Myocardial Contractile force; for change in vivo at 8.75 mg/kg: 8.75 mpk; for change in vivo at 1.87 mg/kg: 1.87 mpk. Further details: species or system adult mongrel dogs. As for the experimental part: Pharmacological Activity--Acute In Vivo Cardiotonic Evaluation
Using the procedures described by Alousi, A. A. et al., Circ. Res. 45, 666 (1979), adult mongrel dogs were anesthetized with sodium pentobarbital, and artificially respirated. Arterial pressure was recorded via a femoral artery and the pressure pulse was used to trigger a cardiotachometer for heart rate. Left ventricular pressure was measured with a Millar catheter, and dP/dt was derived. Cardiac output was determined by measuring ascending aortic blood flow with an electromagnetic flow probe, and the myocardial contractile force (CF) was measured with a Walton Brodie strain gauge sutured to the right ventricle. Lead II EKG was also recorded.
A standard dose of dopamine or dobutamine was administered in order to assess myocardial responsiveness. The test compounds were then administered by i.v. infusion and the effects on cardiovascular parameters were determined. The dose of each example compound was either 1.87 mg/kg or 8.75 mg/kg as set forth below in Table 1.
The dose related effects of the compound on myocardial contractile force was compared to pretreatment control values, expressed as a % change and rated for activity. Statistical evaluations were made using the appropriate parametric test against a vehicle control.

For assay [2], the system named is ovalbumin-induced bronchoconstriction. Briefly: Active Lung Anaphylaxis (inhibition of ovalbumin-induced bronchoconstriction). The class given is in vivo, male Harley guinea pigs. Particulars: prior to ovalbumin provocation, actively sensitized guinea pigs, percent inhibition of control. As for the experimental part:
Pharmacological Activity--Active Lung Anaphylaxis
Using the procedures described by Ritchie, D. M. et al., Agents and Actions 11, 4 (1981), male Harley guinea pigs were actively sensitized, intraperitoneally, with 16 mg alum and 1 mg ovalbumin. Fourteen days later, these animals were anesthetized and their respiration arrested by the administration of succinylcholine. Respiration was maintained at a constant pressure by a miniature Starling pump. Lung overflow changes in pressure were recorded.
Animals were pretreated with indomethacin (10 mg/kg, i.v.), atropine (0.5 mg/kg, i.v.), methysergide (0.1 mg/kg, i.v.), methapyrilene (2.0 mg/kg, i.v.) and arachidonic acid (5.0 mg/kg, i.v.) prior to ovalbumin challenge. […] Indications of drug efficacy were manifested as a substantial reduction in the degree of bronchoconstriction evidenced by control animals.
Bronchoconstriction induced by ovalbumin was measured as a percent of maximum bronchoconstriction (BC) obtained by clamping off the trachea. Percent inhibition of control was determined as follows: [formula]

On to `COc1cc2c(cc1OC)C(C)=[N+]([O-])C(c1ccccc1)N2` (stereo not drawn) [Example 1, 1,2-Dihydro-2-phenyl-4-methyl-6,7-dimethoxy-quinazoline-3-oxide], for which the change in vivo at 8.75 mg/kg in assay [1] amounted to 157%. Besides, the “% Inhibition of Bronchoconstriction at 50 mpk” value (from here on “% Inhibition”) in assay [2] was 60.9%. As for `COc1cc2c(cc1OC)C(C)=[N+]([O-])C(c1ccc(Cl)cc1)N2` (stereo not drawn) [Example 2, 1,2-Dihydro-2-(4-chlorophenyl)-4-methyl-6,7-dimethoxyquinazoline-3-oxide], the change in vivo at 8.75 mg/kg in assay [1] stood at 50%. Consider `COc1ccc(C2Nc3cc(OC)c(OC)cc3C(C)=[N+]2[O-])cc1` (stereo not drawn) [Example 3, 1,2-Dyhydro-2-(4-methoxyphenyl)-4-methyl-6,7-dimethoxyquinazoline-3-oxide], for which the change in vivo at 1.87 mg/kg in assay [1] was 29%. Regarding `COc1cc2c(cc1OC)C(C)=[N+]([O-])C(c1ccc(C)cc1)N2` (stereo not drawn) [Example 4, 1,2-Dihydro-2-(4-tolyl)-4-methyl-6,7-dimethoxy-quinazoline-3-oxide], the change in vivo at 1.87 mg/kg in assay [1] was 42%. Further, the “% Inhibition” value in assay [2] was determined as 71.9%. Regarding `COc1cc2c(cc1OC)C(C)=[N+]([O-])C(c1ccc3c(c1)OCO3)N2` (stereo not drawn) [Example 5, 1,2-Dihydro-2-(3,4-methylenedioxyphenyl)-4-methyl-6,7-dimethoxyquinazoline-3-oxide], the change in vivo at 8.75 mg/kg in assay [1] was determined as 124%. Still for that read-out and setting: under `COc1cc2c(cc1OC)C(C)=[N+]([O-])C(c1cccc3c1OCO3)N2` (stereo not drawn) [Example 6, 1,2-Dihydro-2-(2,3-methylenedioxyphenyl)-4-methyl-6,7-dimethoxyquinazoline-3-oxide] stands 45%. Turning to `COc1cc2c(cc1OC)C(C)=[N+]([O-])C(c1cccc(OCc3ccccc3)c1)N2` (stereo not drawn) [Example 7, 1,2-Dihydro-2-(3-benzyloxyphenyl)-4-methyl-6,7-dimethoxyquinazoline-3-oxide], the change in vivo at 8.75 mg/kg in assay [1] came out at 20%. The “% Inhibition” value in assay [2] is recorded as 49.5%. `COc1cc2c(cc1OC)C(C)=[N+]([O-])C(c1c(F)c(F)c(F)c(F)c1F)N2` (stereo not drawn) [Example 8, 1,2-Dihydro-2-pentafluorophenyl-4-methyl-6,7-dimethoxyquinazoline-3-oxide]: in assay [1], the change in vivo at 1.87 mg/kg worked out at 33%. For the same compound, the “% Inhibition” value in assay [2] is listed as 27.3%.

With `COc1cc2c(cc1OC)C(C)=[N+]([O-])C(c1ccco1)N2` (stereo not drawn) [Example 9, 1,2-Dihydro-2-(2-furyl)-4-methyl-6,7-dimethoxyquinazoline-3-oxide], in assay [1], the change in vivo at 8.75 mg/kg amounted to 123%.

`COc1cc2c(cc1OC)C(C)=[N+]([O-])C(c1cccs1)N2` (stereo not drawn) [Example 10, 1,2-Dihydro-2-(2-thienyl)-4-methyl-6,7-dimethoxyquinazoline-3-oxide]: the change in vivo at 8.75 mg/kg in assay [1] came out at 75%.

Consider `COc1cc2c(cc1OC)C(C)=[N+]([O-])C(c1cccn1C)N2` (stereo not drawn) [Example 11, 1,2-Dihydro-2-(2-(N-methyl)pyrrolo)-4-methyl-6,7-dimethoxyquinazoline-3-oxide], for which, in assay [1], the change in vivo at 1.87 mg/kg was 29%. `COc1cc2c(cc1OC)C(C)=[N+]([O-])C(c1ccccn1)N2` (stereo not drawn) [Example 12, 1,2-Dihydro-2-(2-pyridyl)-4-methyl-6,7-dimethoxyquinazoline-3-oxide]: the change in vivo at 8.75 mg/kg in assay [1] was 45%. Moreover, the “% Inhibition” value in assay [2] stood at 37.9%. Regarding `COc1cc2c(cc1OC)C(C)=[N+]([O-])C(c1ccncc1)N2` (stereo not drawn) [Example 13, 1,2-Dihydro-2-(4-pyridyl)-4-methyl-6,7-dimethoxyquinazoline-3-oxide], in assay [1], the change in vivo at 8.75 mg/kg was found to be 29%.
